Experimental findings from PubChem BioAssay AID602296 (Broad Institute, 2012) are described below.

The subject of this test is NIH3T3-HGL HSF-1 response element luciferase, 48 h. Briefly: HSF-1 reporter activators over prolonged exposure, confirmation, cell-based, mouse, luciferase, cherry-pick, dose (AID 602296).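 Also: test compounds applied by themselves with no MG132 co-treatment.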

Results filed as inconclusive are left out. Active and inactive are the calls of the source.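 The calls were made as follows: active = fitted activation curve crossing 40% at a concentration no higher than the sample's top valid tested dose; inconclusive = flat fitted curve at 30% to 70% activation, or poor curve fit; inactive = signal decrease, flat curve within 30%, or the rest.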

With `CCCCOc1ccc(-c2nc(/C=N/c3nccs3)c(O)o2)cc1`, the AC40 is 18.4 µM. As for `COc1ccc(S(=O)(=O)N2CCC(C(=O)NCc3cccnc3)CC2)cc1C`, the figure is > 26 µM (inactive); as for `S=c1[nH]cc(Cc2ccccc2)s1`, 23.4 µM; as for `CCC(C)c1ccccc1NC(=O)c1cc(C)no1` (stereo unspecified), > 26 µM (inactive). For `Cc1ccccc1NC(=O)C1CCCN(C(=O)NCc2ccccc2)C1` (stereo unspecified), the AC40 is > 26 µM (inactive). With `COCCCNC(=O)c1ccc(NS(C)(=O)=O)cc1` the figure was > 26 µM (inactive); with `Cc1cccc(OCC(=O)Nc2cc(C)ccc2O)c1`, > 26 µM (inactive). As to `CCN(/N=C/C=C/c1ccccc1)c1cc(=O)n(C)c(=O)[nH]1`, the AC40 was > 26 µM (inactive). As for `CN1CCC(=NNc2ccc(S(=O)(=O)N3CCOCC3)cc2[N+](=O)[O-])CC1`, the figure is > 26 µM (inactive); as for `OCC1(CCCc2ccccc2)CCN(C2CCSCC2)CC1`, > 26 µM (inactive). With `O=C(C1CCC(CNS(=O)(=O)c2cccc3nsnc23)CC1)N1CCN(c2ccccn2)CC1` (stereo unspecified) the figure was > 26 µM (inactive); with `CCS(=O)(=O)C(=C1NCCO1)S(=O)(=O)CC`, > 26 µM (inactive). Take `CCCn1c(SCC(=O)c2cc(OC)ccc2OC)nnc1C(C)C`: the AC40 is > 26 µM (inactive). As for `CCN(CC)C(=O)CSc1ncnc2sc(C)c(C)c12`, the AC40 was > 26 µM (inactive). As for `Cn1ccc(C(=O)N/N=C/c2ccncc2)n1`, the figure is 14.3 µM; as for `Cc1ccc(S(=O)(=O)N(CC(=O)NCc2ccco2)Cc2ccc(F)cc2)cc1`, > 26 µM (inactive); as for `O=[N+]([O-])c1ccc(S(=O)(=O)N2CCSC2c2ccco2)cc1` (stereo unspecified), > 26 µM (inactive). With `Cc1cc(C)c2cc(C(=O)N(C)C3CCN(C)CC3)[nH]c2c1` the figure was > 26 µM (inactive); with `Cc1ccc(-c2csc(NC(=O)c3cccc([N+](=O)[O-])c3)n2)cc1`, > 26 µM (inactive). Consider `C=CCC(NCc1ccco1)c1ccc(OC)c(OC)c1` (stereo unspecified), for which the AC40 was > 26 µM (inactive).

On to `O=C(CC12CCC(CC1)C2)NCc1ccc2c(c1)OCO2`, for which the AC40 is > 26 µM (inactive).

Take `O=Nc1c(-c2ccccc2)[nH]n(-c2ccccc2)c1=O`: the AC40 is 20.7 µM. With `O=c1[nH][nH]c(-c2ccccc2O)c1C(C[N+](=O)[O-])c1ccccc1` (stereo unspecified) the figure was 16.9 µM; with `Cc1cccc(C)c1NC(=O)COC(=O)c1cccc2c1C(=O)c1ccccc1C2=O`, > 26 µM (inactive); with `Cn1nnc2c[n+](CC(=O)c3ccc4ccccc4c3)cc(Br)c21`, > 26 µM (inactive). In the case of `O=C(Nc1ccc2c(c1)C(=O)OC2)c1ccc(Cl)cc1`, the AC40 is 12.2 µM. With `Cc1cc(C)n2nc(C(=O)N/N=C/c3c4ccccc4cc4ccccc34)nc2n1` the figure was > 12 µM (inactive); with `COc1ccc(-c2c(C)c3cc(O)ccc3oc2=O)cc1OC`, > 26 µM (inactive). With `COc1cc2c(cc1OC)C(CCc1ccccc1)=NCC2` the figure was > 26 µM (inactive); with `CC(C)CCN=CC1=C(O)CC(c2ccccc2)CC1=O` (stereo unspecified), > 26 µM (inactive).

Take `COc1ccc(-n2cc(CNCc3cccnc3)c(-c3cccc(F)c3)n2)cc1`: the AC40 was > 26 µM (inactive). In the case of `Cc1ccc(NC(=O)Cn2c(CCC(=O)O)ccc2-c2cccs2)cc1`, the AC40 is > 26 µM (inactive). Regarding `S=C(Nc1ccccc1)Nc1ccc(Cl)cn1`, the AC40 was 21 µM. As for `Cc1ccc(C(=O)CNc2ccc(Cl)cc2)cc1`, the figure is > 26 µM (inactive). As for `CCOc1ccccc1CNCCN1CCOCC1`, the figure is > 26 µM (inactive); as for `NS(=O)(=O)c1ccc(NC(=O)CN2C(=O)CCC2=O)cc1`, > 26 µM (inactive); as for `CCC1(C)N=C(N)Nc2nc3cc(C)c(C)cc3n21` (stereo unspecified), 24.5 µM. With `Cc1nc(S(=O)(=O)c2ccc(Cl)cc2)c(NCc2ccccc2)o1` the figure was > 26 µM (inactive); with `O=c1[nH]c2c(s1)C=Nc1ccccc1N2`, 4.98 µM; with `C/C(Cn1cnc([N+](=O)[O-])n1)=N\NC(=O)c1ccccc1F`, 2.7 µM. As to `C#CC[N+]1(CC#Cc2ccccc2)CCCCC1`, the AC40 was > 26 µM (inactive). As for `CCOP(=O)(C(NC(=O)c1ccccc1Cl)=C(Cl)Cl)c1ccccc1` (stereo unspecified), the figure is > 26 µM (inactive); as for `NC(=O)CCN1CCN(CCOC2Cc3cc(Cl)ccc3Sc3ccccc32)CC1` (stereo unspecified), > 26 µM (inactive). As for `COc1ccc(NC(=S)Nc2ccccc2SC)c(OC)c1`, the figure is 24.2 µM. With `NC(=O)c1cc2cc(Br)ccc2oc1=NCc1ccccc1` the figure was > 26 µM (inactive); with `CCc1nc2c(sc3nc4c(cc32)COC(C)(C)C4)c(=O)n1Cc1ccco1`, > 26 µM (inactive); with `CC(C)(C)NC(=O)NC(=O)CN1CC=C(c2ccccc2)CC1`, > 26 µM (inactive). In the case of `Cn1c2ccc(F)cc2c2ncn(CCN3CCOCC3)c(=O)c21`, the AC40 is > 26 µM (inactive). In the case of `C[C@]12CC[C@@H]3c4cc(O)c(O)cc4CC[C@H]3[C@@H]1CC[C@@H]2O`, the AC40 was 25.2 µM.

For `O=C(O)C1CCCCC1C(=O)Nc1ccc2c(c1)CCC2` (stereo unspecified), the AC40 was 5.08 µM.

As for `O=c1c2ccccc2[nH]c(=S)n1CCC1=CCCCC1`, the AC40 was 11.3 µM. Turning to `C[C@@H]1C(NC(=O)c2ccccc2)CC2CC1C2(C)C` (stereo partly specified), the AC40 was > 26 µM (inactive). As for `Nc1nnc(CSCc2ccccc2Cl)s1`, the figure is > 26 µM (inactive); as for `CCCN1C(=O)c2ccccc2NC1c1ccc(Cl)c(Cl)c1` (stereo unspecified), > 26 µM (inactive); as for `Cc1ccc(NC(=O)c2cc3c(=O)oc4ccccc4c3s2)nc1`, > 26 µM (inactive). As for `COc1ccc(C2CC(=O)c3cnc(N4CCc5ccccc54)nc3C2)cc1OC` (stereo unspecified), the figure is > 26 µM (inactive); as for `COc1cc(/C=N/N2C(=O)c3ccccc3NC2(C)c2cccc([N+](=O)[O-])c2)cc(Br)c1O` (stereo unspecified), > 26 µM (inactive). For the compound `CCOC(=O)/C(=N/Nc1ccc(Cl)cc1)Sc1nnnn1-c1ccc(C)cc1`, the AC40 is > 12 µM (inactive). As for `Cc1ccc(/C=C2/NC(=O)N(Cc3ccc(Br)cc3)C2=O)o1`, the figure is > 26 µM (inactive); as for `CCOC(=O)c1cnc2ccc(C)cc2c1Sc1ccc(F)cc1`, > 12 µM (inactive); as for `FC(F)(F)c1cccc(NC(=S)NCc2ccccn2)c1`, 7.35 µM.

Consider `CCOC(=O)Cn1nnc(-c2cccc(OC)c2)n1`, for which the AC40 was 12.8 µM. `CC1CCCCN1C(=O)COc1ccccc1F` (stereo unspecified): the AC40 is 21.2 µM. With `CSC(=NC#N)N1CCN(c2ccc(Cl)cc2)CC1` the figure was 25.3 µM; with `O=C(CN1CCOCC1)N(c1ccccc1)c1ccc2ccccc2c1`, 14.6 µM. `O=C(NC(CO)(CO)CO)c1coc(=O)c(Br)c1`: the AC40 was > 26 µM (inactive). As for `CC1(C)CC(=O)C(C2C3=C(CC(C)(C)CC3=O)OC3=C2C(=O)CC(C)(C)C3)=C(O)C1`, the figure is > 26 µM (inactive); as for `COc1cc(C2Nc3ccc4ncccc4c3C3=C2C(=O)CCC3)cc(OC)c1OC` (stereo unspecified), 5.44 µM; as for `COc1ccc(/C=C/C(=O)N(C(C)C)C(C)C)cc1Br`, 6.82 µM.

Regarding `O=C1C=C(c2ccccc2)CC(/C=C/c2ccccc2)C1` (stereo unspecified), the AC40 was 18 µM. As for `O=C(Cc1c(O)c2ccccc2[nH]c1=O)NCc1ccccc1`, the AC40 is > 26 µM (inactive).

For `CCCCCNC(=O)C1CCC(Cn2c(=S)[nH]c3ccccc3c2=O)CC1` (stereo unspecified), the AC40 is > 26 µM (inactive). With `O=C1c2ccccc2C(=O)N1CC(O)COc1ccc(Br)cc1` (stereo unspecified) the figure was 13.7 µM; with `Nc1cc(-c2ccco2)no1`, > 26 µM (inactive); with `COc1cc(/C=C(/C#N)C(=O)c2c(C)[nH]c3ccccc23)ccc1OCC#N`, > 26 µM (inactive). Turning to `O=C(CCCC1=NS(=O)(=O)c2ccccc2N1)N1CCN(c2ccccc2)CC1`, the AC40 was > 26 µM (inactive). With `COC(=O)Cn1c(=O)c2c(nc3n2CC(C)CN3CCc2ccccc2)n(C)c1=O` (stereo unspecified) the figure was > 26 µM (inactive); with `COCc1cc(=O)[nH]c(SCCS(=O)(=O)c2ccc(Cl)cc2Cl)n1`, > 12 µM (inactive). With `CC1=C(Sc2nc3ccccc3[nH]2)C(=O)NC(C)(C)C1` the figure was > 26 µM (inactive); with `CCN1CC(CN(C)Cc2nc(COc3ccccc3)no2)CC1=O` (stereo unspecified), > 26 µM (inactive).

`COc1cccc(-c2nn(-c3ccccc3)cc2C(=O)n2nnc3ccccc32)c1`: the AC40 was > 26 µM (inactive). As to `CCN(CC)CCCNC(=O)CSc1c2c(nc3cc(Cl)ccc13)CCCC2`, the AC40 is 22 µM.

`OC(CNCc1cccc(Cl)c1)c1ccccc1` (stereo unspecified): the AC40 is 24.8 µM. As for `Clc1ncnc2scc(C3COc4ccccc4O3)c12` (stereo unspecified), the figure is 17.7 µM; as for `CCN(CC)C(=O)Oc1ccc(Br)cc1C(=O)Nc1ccc(F)cc1F`, > 26 µM (inactive). With `CCC1(c2ccccc2)NC(=O)N(CC(=O)NCc2ccccc2OC)C1=O` (stereo unspecified) the figure was > 26 µM (inactive); with `O=[N+]([O-])c1ccc(Sc2ccccc2)nc1`, > 26 µM (inactive); with `COc1cc2nc(CSc3nc(-c4ccc(F)cc4)cs3)[nH]c(=O)c2cc1OC`, > 26 µM (inactive). As for `CSc1ccc(/C=N\Nc2nncn2N)cc1`, the figure is > 26 µM (inactive); as for `Cn1cc(C=O)c(-c2ccc3c(c2)OCCCO3)n1`, 3.77 µM; as for `O=C(O)CN1C(=O)/C(=C\c2cc(Br)ccc2OCc2ccc(F)cc2)SC1=S`, > 26 µM (inactive). For `CCc1nnc(N/N=C/c2ccccc2Cl)n1N`, the AC40 is 21.9 µM. On to `Cc1ccccc1-n1nnc2c(=O)oc3ccccc3c21`, for which the AC40 was > 26 µM (inactive). As to `CC1(C)Cc2c(C#N)c(N)n(-c3ccccc3)c(=S)c2CO1`, the AC40 is > 26 µM (inactive). As for `O=C(CC(c1ccco1)S(=O)(=O)c1ccccc1)c1ccc(F)cc1` (stereo unspecified), the figure is > 26 µM (inactive); as for `COC1(OC)C(/C=C/c2ccc(Cl)cc2)C(C#N)(C#N)C1(OC)OC` (stereo unspecified), 16.9 µM.
